In ChEMBL document CHEMBL1159004, “Four new antibacterial sesterterpenes from a marine sponge of the genus Luffariella” (1992):

Legend:
Type in all cases: functional
[1] = system: Micrococcus luteus; experiment: Antibacterial activity against Micrococcus luteus ATCC 9341 by TLC bioautographic test
[2] = system: Bacillus subtilis; experiment: Antibacterial activity against Bacillus subtilis ATCC […] by TLC bioautographic test
[3] = system: Escherichia coli; experiment: Antibacterial activity against Escherichia coli ATCC 25922 by TLC bioautographic test

Work on CC(=O)OC/C(=C\C[C@H]1OC(=O)CC1CO)CC/C=C(\C)CCC1=C(C)CCCC1(C)C (stereo partly drawn) yielded an Activity [1] of 3 µg and an Activity [2] of 11 µg.
With CC(=O)OC/C(=C\C[C@H]1OC(=O)C=C1CO)CC/C=C(\C)CCC1=C(C)CCCC1(C)C the Activity [1] was 8 µg and the Activity [2] was 2 µg.
For CC1=C(CC/C(C)=C/CC/C(=C/C[C@H]2OC(=O)CC2CO)CO)C(C)(C)CCC1 (stereo partly drawn), the Activity [3] was 1 µg and the Activity [1] was 5 µg.
Work on CC1=C(CC/C(C)=C/CC/C(C=O)=C\C[C@H]2OC(=O)C=C2CO)C(C)(C)CCC1 yielded an Activity [1] of 4 µg and an Activity [2] of 4 µg.
